In patent US20030036564A1, “Control of lyme disease spirochete” (priority 2001, published 2003):

System: Borrelia burgdorferi strain B31
Test: Antibiotic bait diet fed no-choice for seven days to mice infected with Lyme disease spirochete; ear punch biopsy culture and dark field microscopy
Assay type: in vivo, laboratory mice (Swiss-Webster)
Details: ear punch biopsy culture, dark field microscopy
Experimental: The diet compositions described in Examples 1-3 were fed separately on a no-choice basis to separate groups of laboratory mice (Swiss-Webster) infected with the Lyme disease spirochete Borrelia burgdorferi. […]. The mice had all been previously infected with B. burgdorferi strain B31 by subcutaneous injection followed by a minimum 21-day incubation period. To confirm that the mice were positive for the spirochete, a modified ear punch biopsy was performed (Sinsky and Piesman, 1989, J. of Clin. Micro. 27:1723-1727, CDC 1997) on each mouse and the biopsy incubated in a modified BSK-H media for 7 days and viewed under dark field microscopy. The prepared diets were fed to individually housed mice on a no-choice basis and water was offered ad libitum. Consumption was recorded each day and additional feed was added. Diet was presented to the mice for seven consecutive days. On the day following the last day feed was offered, mice were anesthetized with Halothane and ear punch biopsy was performed. The biopsies were incubated in modified BSK-H media for seven days at 34±1° C. Dark field microscopy was then performed on an American Optics 1031 microscope with an American Optics dark field 1096 condenser to determine the presence of spirochetes. Cultures were considered positive if spirochete growth occurred within five weeks of inoculation (Wilske and Preac-Mursic, Aspects of Lyme Borreliosis, Springer-Verlag, New York 1993), viewing the cultures at seven-day increments. A slide was considered negative if no spirochetes were found after searching 100 fields at 400× (Ginsberg and Ewing, J. of Med. Entomology, 26: 183-189, 1989).

[1] = Treatment level 1, chloramphenicol 500 μg/g bait
[2] = Treatment level 2, chloramphenicol 1000 μg/g bait
[3] = Treatment level 3, thiamphenicol 1000 μg/g bait

Row | SMILES | NUMBER OF MICE TESTING NEGATIVE FOR SPIROCHETE [1] | PERCENTAGE OF MICE TESTING NEGATIVE FOR SPIROCHETE [1] | NUMBER OF MICE TESTING NEGATIVE FOR SPIROCHETE [2] | PERCENTAGE OF MICE TESTING NEGATIVE FOR SPIROCHETE [2] | NUMBER OF MICE TESTING NEGATIVE FOR SPIROCHETE [3] | PERCENTAGE OF MICE TESTING NEGATIVE FOR SPIROCHETE [3]
1 | O=C(N[C@H](CO)[C@H](O)c1ccc([N+](=O)[O-])cc1)C(Cl)Cl [CHLORAMPHENICOL, chloramphenicol] | 10/10 | (100%) | 10/10 | (100%) |  | 
2 | CS(=O)(=O)c1ccc([C@@H](O)[C@@H](CO)NC(=O)C(Cl)Cl)cc1 [THIAMPHENICOL, thiamphenicol] |  |  |  |  | 10/10 | (100%)
